Patent publication US9567304B2, “Quinazolinedione derivative” (Chugai Seiyaku Kabushiki Kaisha, priority 2012, dated 2017)

System: human endometrial cancer cell line MFE-280
Test: Measurement of antitumor effect in MFE-280 cancer-bearing mice
Assay type: in vivo
Conditions: 200 mg/kg, orally once daily, MFE-280 subcutaneous xenograft in BALB/c nude mice, 11th day after start of administration

Structure (SMILES): CCS(=O)(=O)c1ccc(Cl)cc1Cn1c(=O)[nH]c2c(Cl)c(CN3CCNCC3)c(C(F)(F)F)cc2c1=O [Compound F-1, 8-Chloro-3-(5-chloro-2-ethanesulfonyl-benzyl)-7-piperazin-1-ylmethyl-6-trifluoromethyl-1H-quinazoline-2,4-dione]
- Antitumor effect TGI after 11 days (%): 61%
